# Data from ChEMBL document CHEMBL1177732, “Triterpene saponins from Clematis chinensis and their potential anti-inflammatory activity” (J Nat Prod, 2010).
# Assays:
# [1] = target: T1, Prostaglandin G/H synthase 2 (Homo sapiens, UniProt P35354); experiment: Inhibition of COX2 by microplate reader
# T1 sequence (P35354 whole entry): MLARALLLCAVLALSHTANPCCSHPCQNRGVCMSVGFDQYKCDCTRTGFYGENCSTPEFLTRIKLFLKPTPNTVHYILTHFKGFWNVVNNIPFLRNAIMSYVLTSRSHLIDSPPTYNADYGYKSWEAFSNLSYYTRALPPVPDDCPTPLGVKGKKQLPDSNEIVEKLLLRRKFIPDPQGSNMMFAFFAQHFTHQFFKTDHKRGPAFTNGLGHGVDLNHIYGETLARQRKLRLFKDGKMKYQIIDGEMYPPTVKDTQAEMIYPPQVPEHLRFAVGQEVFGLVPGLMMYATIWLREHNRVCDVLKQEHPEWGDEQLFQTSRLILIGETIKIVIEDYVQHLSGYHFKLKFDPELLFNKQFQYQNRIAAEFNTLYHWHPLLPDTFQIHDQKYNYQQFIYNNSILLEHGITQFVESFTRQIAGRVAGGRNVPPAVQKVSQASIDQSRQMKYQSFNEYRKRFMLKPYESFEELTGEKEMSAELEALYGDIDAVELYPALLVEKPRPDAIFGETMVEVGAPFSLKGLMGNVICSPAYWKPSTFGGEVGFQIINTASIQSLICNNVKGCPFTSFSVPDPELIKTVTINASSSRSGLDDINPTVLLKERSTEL
# [2] = target: Prostaglandin G/H synthase 1 (Homo sapiens, UniProt P23219); experiment: Inhibition of COX1 by microplate reader
# Chain of Prostaglandin G/H synthase 1 (P23219 whole entry): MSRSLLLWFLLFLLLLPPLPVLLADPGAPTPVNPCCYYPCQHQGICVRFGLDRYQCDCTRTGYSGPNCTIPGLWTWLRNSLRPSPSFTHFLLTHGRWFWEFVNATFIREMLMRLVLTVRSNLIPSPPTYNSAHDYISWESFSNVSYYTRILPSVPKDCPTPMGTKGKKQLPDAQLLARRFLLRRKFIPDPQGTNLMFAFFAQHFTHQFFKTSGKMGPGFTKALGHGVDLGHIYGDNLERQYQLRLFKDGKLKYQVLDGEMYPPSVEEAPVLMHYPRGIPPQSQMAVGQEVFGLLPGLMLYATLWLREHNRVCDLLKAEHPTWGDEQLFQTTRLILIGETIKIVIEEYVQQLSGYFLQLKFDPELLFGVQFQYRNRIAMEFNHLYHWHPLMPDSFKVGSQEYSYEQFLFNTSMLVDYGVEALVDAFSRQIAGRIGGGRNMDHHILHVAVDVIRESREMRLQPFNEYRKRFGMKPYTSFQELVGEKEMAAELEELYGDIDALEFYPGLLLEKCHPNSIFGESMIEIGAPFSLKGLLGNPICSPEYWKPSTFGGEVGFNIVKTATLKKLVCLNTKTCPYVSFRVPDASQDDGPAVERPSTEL
IC50 [1] [µM],IC50 [2] [µM],SMILES
7.9,8.9,COc1ccc(/C=C/C(=O)OC[C@H]2O[C@@H](O[C@H]3[C@H](O)[C@@H](O)[C@H](O[C@@H]4CO[C@@H](O[C@@H]5[C@@H](O)[C@H](C)O[C@@H](O[C@H]6[C@H](O[C@H]7CC[C@@]8(C)[C@@H](CC[C@]9(C)[C@@H]8CC=C8[C@@H]%10CC(C)(C)CC[C@]%10(C(=O)O[C@@H]%10O[C@H](CO[C@@H]%11O[C@H](CO)[C@@H](O[C@@H]%12O[C@@H](C)[C@H](O)[C@@H](O)[C@H]%12O)[C@H](O)[C@H]%11O)[C@@H](O)[C@H](O)[C@H]%10O)CC[C@]89C)[C@]7(C)CO)OC[C@@H](O)[C@@H]6O)[C@@H]5O)[C@H](O)[C@@H]4O)O[C@@H]3CO)[C@H](O)[C@@H](O)[C@@H]2O)cc1O [CLEMATOCHINENOSIDE E]
> 50,> 50,C[C@@H]1O[C@@H](O[C@H]2[C@H](O)[C@@H](O)[C@H](OC[C@H]3O[C@@H](OC(=O)[C@]45CCC(C)(C)C[C@H]4C4=CC[C@@H]6[C@@]7(C)CC[C@H](O[C@@H]8OC[C@H](O)[C@H](O)[C@H]8O[C@@H]8O[C@@H](C)[C@H](O)[C@@H](O[C@@H]9OC[C@@H](O[C@@H]%10O[C@H](CO)[C@@H](O[C@@H]%11O[C@H](CO)[C@@H](O)[C@H](O)[C@H]%11O)[C@H](O)[C@H]%10O)[C@@H](O)[C@H]9O)[C@H]8O)C(C)(C)[C@@H]7CC[C@@]6(C)[C@]4(C)CC5)[C@H](O)[C@@H](O)[C@@H]3O)O[C@@H]2CO)[C@H](O)[C@H](O)[C@H]1O [CLEMATOMANDSHURICA SAPONIN C]
> 50,> 50,C[C@@H]1O[C@@H](O[C@H]2[C@H](O[C@H]3CC[C@]4(C)[C@H]5CC=C6[C@@H]7CC(C)(C)CC[C@]7(C(=O)O[C@@H]7O[C@H](CO[C@@H]8O[C@H](CO)[C@@H](O[C@@H]9O[C@@H](C)[C@H](O)[C@@H](O)[C@H]9O)[C@H](O)[C@H]8O)[C@@H](O)[C@H](O)[C@H]7O)CC[C@@]6(C)[C@]5(C)CC[C@H]4C3(C)C)OC[C@H](O)[C@@H]2O)[C@H](O)[C@H](O)[C@H]1O [HEDERASAPONIN B]
> 50,> 50,C[C@@H]1O[C@@H](O[C@H]2[C@H](O)[C@@H](O)[C@H](OC[C@H]3O[C@@H](OC(=O)[C@]45CCC(C)(C)C[C@H]4C4=CC[C@@H]6[C@@]7(C)CC[C@H](O[C@@H]8OC[C@H](O)[C@H](O)[C@H]8O[C@@H]8O[C@@H](C)[C@H](O)[C@@H](O[C@@H]9OC[C@@H](O)[C@@H](O)[C@H]9O)[C@H]8O)C(C)(C)[C@@H]7CC[C@@]6(C)[C@]4(C)CC5)[C@H](O)[C@@H](O)[C@@H]3O)O[C@@H]2CO)[C@H](O)[C@H](O)[C@H]1O [HUZHANGOSIDE B]
> 50,> 50,C[C@@H]1O[C@@H](O[C@H]2[C@H](O[C@H]3CC[C@]4(C)[C@H]5CC=C6[C@@H]7CC(C)(C)CC[C@]7(C(=O)O[C@@H]7O[C@H](CO[C@@H]8O[C@H](CO)[C@@H](O[C@@H]9O[C@@H](C)[C@H](O)[C@@H](O)[C@H]9O)[C@H](O)[C@H]8O)[C@@H](O)[C@H](O)[C@H]7O)CC[C@@]6(C)[C@]5(C)CC[C@H]4C3(C)CO)OC[C@H](O)[C@@H]2O)[C@H](O)[C@H](O)[C@H]1O (stereo partly specified) [KIZUTA SAPONIN K12]

# The remaining lines, values behind:
SMILES,IC50 [1] [µM],IC50 [2] [µM]
C[C@@H]1O[C@@H](O[C@H]2[C@H](O)[C@@H](O)[C@H](OC[C@H]3O[C@@H](OC(=O)[C@]45CCC(C)(C)C[C@H]4C4=CC[C@@H]6[C@@]7(C)CC[C@H](O[C@@H]8OC[C@H](O)[C@H](O)[C@H]8O[C@@H]8O[C@@H](C)[C@H](O)[C@@H](O[C@@H]9OC[C@@H](O[C@@H]%10O[C@H](CO)[C@@H](O)[C@H](O)[C@H]%10O)[C@@H](O)[C@H]9O)[C@H]8O)C(C)(C)[C@@H]7CC[C@@]6(C)[C@]4(C)CC5)[C@H](O)[C@@H](O)[C@@H]3O)O[C@@H]2CO)[C@H](O)[C@H](O)[C@H]1O [CLEMATICHINENOSIDE C],> 50,> 50
COc1ccc(/C=C/C(=O)O[C@H]2[C@H](O[C@H]3[C@H](O)[C@@H](O)[C@H](O[C@@H]4CO[C@@H](O[C@@H]5[C@@H](O)[C@H](C)O[C@@H](O[C@H]6[C@H](O[C@H]7CC[C@@]8(C)[C@@H](CC[C@]9(C)[C@@H]8CC=C8[C@@H]%10CC(C)(C)CC[C@]%10(C(=O)O[C@@H]%10O[C@H](CO[C@@H]%11O[C@H](CO)[C@@H](O[C@@H]%12O[C@@H](C)[C@H](O)[C@@H](O)[C@H]%12O)[C@H](O)[C@H]%11O)[C@@H](O)[C@H](O)[C@H]%10O)CC[C@]89C)[C@]7(C)CO)OC[C@@H](O)[C@@H]6O)[C@@H]5O)[C@H](O)[C@@H]4O)O[C@@H]3CO)O[C@H](CO)[C@@H](O)[C@@H]2O[C@@H]2O[C@H](CO[C@@H]3O[C@@H](C)[C@H](O)[C@@H](O)[C@H]3O[C@@H]3O[C@H](CO)[C@@H](O)[C@H](O)[C@H]3O)[C@@H](O)[C@H](O)[C@H]2O)cc1O [CLEMATOCHINENOSIDE A],6.7,7.8
COc1ccc(/C=C/C(=O)O[C@H]2[C@H](O[C@H]3[C@H](O)[C@@H](O)[C@H](O[C@@H]4CO[C@@H](O[C@@H]5[C@@H](O)[C@H](C)O[C@@H](O[C@H]6[C@H](O[C@H]7CC[C@@]8(C)[C@@H](CC[C@]9(C)[C@@H]8CC=C8[C@@H]%10CC(C)(C)CC[C@]%10(C(=O)O[C@@H]%10O[C@H](CO[C@@H]%11O[C@H](CO)[C@@H](O[C@@H]%12O[C@@H](C)[C@H](O)[C@@H](O)[C@H]%12O)[C@H](O)[C@H]%11O)[C@@H](O)[C@H](O)[C@H]%10O)CC[C@]89C)[C@]7(C)CO)OC[C@@H](O)[C@@H]6O)[C@@H]5O)[C@H](O)[C@@H]4O)O[C@@H]3CO)O[C@H](CO)[C@@H](O)[C@@H]2O[C@@H]2O[C@H](CO[C@@H]3O[C@@H](C)[C@H](O)[C@@H](O)[C@H]3O)[C@@H](O[C@@H]3O[C@H](CO)[C@@H](O)[C@H](O)[C@H]3O)[C@H](O)[C@H]2O)cc1O [CLEMATOCHINENOSIDE C],6.1,6.3
COc1ccc(/C=C/C(=O)O[C@@H]2[C@@H](O)[C@H](O[C@H]3[C@H](O)[C@@H](O)[C@H](O[C@@H]4CO[C@@H](O[C@@H]5[C@@H](O)[C@H](C)O[C@@H](O[C@H]6[C@H](O[C@H]7CC[C@@]8(C)[C@@H](CC[C@]9(C)[C@@H]8CC=C8[C@@H]%10CC(C)(C)CC[C@]%10(C(=O)O[C@@H]%10O[C@H](CO[C@@H]%11O[C@H](CO)[C@@H](O[C@@H]%12O[C@@H](C)[C@H](O)[C@@H](O)[C@H]%12O)[C@H](O)[C@H]%11O)[C@@H](O)[C@H](O)[C@H]%10O)CC[C@]89C)[C@]7(C)CO)OC[C@@H](O)[C@@H]6O)[C@@H]5O)[C@H](O)[C@@H]4O)O[C@@H]3CO)O[C@H](CO)[C@H]2O)cc1O [CLEMATOCHINENOSIDE D],7.8,8.8
COc1ccc(/C=C/C(=O)OC[C@H]2O[C@@H](O[C@H]3[C@H](O)[C@@H](O)[C@H](O[C@@H]4CO[C@@H](O[C@@H]5[C@@H](O)[C@H](C)O[C@@H](O[C@H]6[C@H](O[C@H]7CC[C@]8(C)[C@H]9CC=C%10[C@@H]%11CC(C)(C)CC[C@]%11(C(=O)O[C@@H]%11O[C@H](CO[C@@H]%12O[C@H](CO)[C@@H](O[C@@H]%13O[C@@H](C)[C@H](O)[C@@H](O)[C@H]%13O)[C@H](O)[C@H]%12O)[C@@H](O)[C@H](O)[C@H]%11O)CC[C@@]%10(C)[C@]9(C)CC[C@H]8C7(C)C)OC[C@@H](O)[C@@H]6O)[C@@H]5O)[C@H](O)[C@@H]4O)O[C@@H]3CO)[C@H](O)[C@@H](O)[C@@H]2O)cc1O [CLEMATOCHINENOSIDE F],7.2,7.8
COc1ccc(/C=C/C(=O)O[C@H]2[C@H](O[C@H]3[C@H](O)[C@@H](O)[C@H](O[C@@H]4CO[C@@H](O[C@@H]5[C@@H](O)[C@H](C)O[C@@H](O[C@H]6[C@H](O[C@H]7CC[C@@]8(C)[C@@H](CC[C@]9(C)[C@@H]8CC=C8[C@@H]%10CC(C)(C)CC[C@]%10(C(=O)O[C@@H]%10O[C@H](CO[C@@H]%11O[C@H](CO)[C@@H](O[C@@H]%12O[C@@H](C)[C@H](O)[C@@H](O)[C@H]%12O)[C@H](O)[C@H]%11O)[C@@H](O)[C@H](O)[C@H]%10O)CC[C@]89C)[C@]7(C)CO)OC[C@@H](O)[C@@H]6O)[C@@H]5O)[C@H](O)[C@@H]4O)O[C@@H]3CO)O[C@H](CO)[C@@H](O)[C@@H]2O[C@@H]2O[C@H](CO)[C@@H](O)[C@H](O)[C@H]2O)cc1O [CLEMATOCHINENOSIDE G],8.9,7.5
C[C@@H]1O[C@@H](O[C@H]2[C@H](O)[C@@H](O)[C@H](OC[C@H]3O[C@@H](OC(=O)[C@]45CCC(C)(C)C[C@H]4C4=CC[C@@H]6[C@@]7(C)CC[C@H](O[C@@H]8OC[C@H](O)[C@H](O)[C@H]8O[C@@H]8O[C@@H](C)[C@H](O)[C@@H](O[C@@H]9OC[C@@H](O)[C@@H](O)[C@H]9O)[C@H]8O)[C@@](C)(CO)[C@@H]7CC[C@@]6(C)[C@]4(C)CC5)[C@H](O)[C@@H](O)[C@@H]3O)O[C@@H]2CO)[C@H](O)[C@H](O)[C@H]1O [HUZHANGOSIDE D],> 50,> 50
C[C@@H]1O[C@@H](O[C@H]2[C@H](O)[C@@H](O)[C@H](OC[C@H]3O[C@@H](OC(=O)[C@]45CCC(C)(C)C[C@H]4C4=CC[C@@H]6[C@@]7(C)CC[C@H](O)[C@@](C)(CO)[C@@H]7CC[C@@]6(C)[C@]4(C)CC5)[C@H](O)[C@@H](O)[C@@H]3O)O[C@@H]2CO)[C@H](O)[C@H](O)[C@H]1O [KIZUTA CIRENSENOSIDE O SAPONIN K3],> 50,> 50
